Square brackets hold non-standard residues; d marks the D form. Ends that are not written are not given here.
How the values were obtained:
mouse = experiment: Angiogenesis action in vivo examined by DAS assay (microcell embedded in the back of mouse); conditions: for angiogenic activity / angiogenesis action (summary in words): DAS assay in mice; for Angiogenesis Magnitude (number of newly formed spiral blood vessels): peptide 10 μg/ml in DMEM injected into microcell in back of mouse, observed five days later; for formation of capillary / spiral blood vessels in tissue contacting the microcell (observation): peptide 10 μg/ml in DMEM; for formation of capillary / spiral blood vessels in tissue contacting the microcell (observation) / angiogenesis magnitude: microcell in back of mouse, five days; for angiogenesis magnitude: peptide-bound gelatin collagen I mixture solution 10 μg/ml
Protocol: A solution containing the peptide at a concentration of 10 μg/ml in DMEM (Dulbecco's modified Eagle medium) used as a cell culture medium was prepared.
The magnitude indicates the number of newly formed spiral blood vessels, and M0 means that the number is 0, M1 means 1 to 10, M2 means 11 to 20, M3 means 21 to 30, M4 means 31 to 40, M5 means 41 to 50 and M6 means 51 or more. Thus, the larger the magnitude M, the higher the angiogenic activity.
The AGP conjugate (prepared in Example 10) having a concentration of 100 μg/ml was dissolved in collagen I at a ratio of 1:10 to obtain a peptide-bound gelatin collagen mixture solution having a concentration of 10 μg/ml.

[1] = test system: transformed rat lung endothelial cells (TRLECs); experiment: Angiogenic action in three-dimensionally cultured vascular endothelial tissue (tube formation); type: cell-based
Protocol: Rat vascular endothelial cells were three-dimensionally cultured in the presence of AGP synthesized in Example 1. As the cells, transformed rat lung endothelial cells (TRLECs) were used. TRLECs were placed in a collagen I layer mixed with the peptide solution, which contained 10 μg/ml of AGP, and cultured in a carbon dioxide gas incubator for 14 days. Control experiments were carried out in the absence of a factor. And positive control experiments were performed in the presence of VEGF, which is known as a potent angiogenesis factor.
No tubes were detected in the control at all. […] It was observed that a plurality of microvilli were found on the inner surfaces of the tubes. […] Tight junction formation was observed where the endothelial cells were firmly bound. These observations indicate that the endothelial cells acquired polarity and formed tubes. The polarity means that a cell develops regions having different functions such as head and tail. No polarity is given to the endothelial cells when the endothelial cells are cultured in a usual way, and so no tubes are formed.
Rat vascular endothelial cells were three-dimensionally cultured in the presence of AGP-bound gelatin synthesized in Example 10. As the cells, transformed rat lung endothelial cells (TRLECs) were used. Peptide AGP-bound gelatin (conjugate) and collagen type I were mixed at a ratio of 1:10, and TRLECs were placed in a layer containing the conjugate-collagen mixture solution, having a final concentration of 10 μg (microgram/ml) and cultured in a carbon dioxide gas incubator for 14 days. Control experiments were carried out in the absence of a factor, and in the presence of VEGF known as an angiogenesis factor.
No tube formations were detected in the control at all. […] It was observed that a plurality of microvilli were formed on the inner surfaces of the tubes. […] Tight junction formation was observed where the endothelial cells were firmly bound. These observations indicate that the endothelial cells acquired polarity and formed tubes.

[2] = TRLECs in collagen I layer, 10 μg/ml of AGP, cultured 14 days, microscope

Substance | Angiogenesis Magnitude (number of newly formed spiral blood vessels) (mouse) | also measured
AGP4: AGP heptapeptide wherein the fourth amino acid tyrosine was substituted by alanine (SVVAGLR; Oligopeptide not having angiogenic activity) | M0 (M0 means that the number is 0) | angiogenic activity / angiogenesis action (summary in words) (mouse): angiogenesis action was lost; formation of capillary / spiral blood vessels in tissue contacting the microcell (observation) (mouse): not observed at all
AGP: heptapeptide (angiogenic peptide) having the amino acid sequence shown in SEQ ID NO: 1 (SVVYGLR; Oligopeptide having angiogenic activity) | M5 (M5 means 41 to 50) | angiogenic activity / angiogenesis action (summary in words) (mouse): strong (prominent) angiogenesis action; formation of capillary / spiral blood vessels in tissue contacting the microcell (observation) (mouse): a number of branched capillary blood vessels were formed; angiogenesis magnitude (mouse): M5 (M5 means 41 to 50); tube-like structure formation by endothelial cells [1, 2]: arranged in the tube-like structure; lengths of the tubes formed, compared with VEGF ([1]; TRLECs in collagen I layer, 10 μg/ml, 14 days): significantly longer
GLR (Oligopeptide not having angiogenic activity) [compound 7] | M0 (M0 means that the number is 0) | 
GRGDSVVYGLR (Oligopeptide having angiogenic activity) [Example 16] |  | angiogenic activity / angiogenesis action (summary in words) (mouse): high angiogenic activities
SVV (Oligopeptide not having angiogenic activity) [compound 4] | M0 (M0 means that the number is 0) | 
SVV yGLR (SVV[dY]GLR) [Example 18] | M2 (M2 means 11 to 20) | 
SVVFGLR (Oligopeptide having angiogenic activity) [Example 12] | M6 (M6 means 51 or more) | angiogenic activity / angiogenesis action (summary in words) (mouse; listed as SEQ ID NO: 9): especially high angiogenic activity; angiogenic activity / angiogenesis action (summary in words) (mouse; listed as SEQ ID NO:9): higher angiogenic activity than the peptide having the amino acid sequence shown in SEQ ID NO: 1
SVVWGLR (Oligopeptide having angiogenic activity) [Example 19] | M3 (M3 means 21 to 30) | 
SVVY (Oligopeptide having angiogenic activity) [Example 21] | M1 (M1 means 1 to 10) | 
SVVYG (Oligopeptide having angiogenic activity) [Example 20] | M2 (M2 means 11 to 20) | 
SVVYGL (Oligopeptide having angiogenic activity) [Example 13] | M5 (M5 means 41 to 50) | 
SVVYGLRG (Oligopeptide having angiogenic activity) [Example 15] |  | angiogenic activity / angiogenesis action (summary in words) (mouse): high angiogenic activities
VEGF | M3 (M3 means 21 to 30) | angiogenesis magnitude (mouse): M3 (M3 means 21 to 30); tube-like structure formation by endothelial cells [1, 2]: arranged in the tube-like structure; tube-like structure formation by endothelial cells ([1]; TRLECs in conjugate-collagen type I mixture (1:10), final concentration 10 μg/ml, 14 days): arranged in the tube-like structure
VVYGLR (Oligopeptide having angiogenic activity) [Example 14] | M5 (M5 means 41 to 50) | 
VYGLR (Oligopeptide not having angiogenic activity) [compound 5] | M0 (M0 means that the number is 0) | 
YGLR (Oligopeptide not having angiogenic activity) [compound 6] | M0 (M0 means that the number is 0) | 

From patent US20040266696A1, “Angiogenesis drugs” (priority 2001, published 2004)
